From PMC8039944, “Characterization of drug-induced human mitochondrial ADP/ATP carrier inhibition” (Theranostics, 2021)

What was measured:
[1] = biological target: T1, human mitochondrial ADP/ATP carrier isoform 1 (hAAC1) (Homo sapiens, UniProt P12235); set-up: gene SLC25A4
T1 sequence (P12235 11-298): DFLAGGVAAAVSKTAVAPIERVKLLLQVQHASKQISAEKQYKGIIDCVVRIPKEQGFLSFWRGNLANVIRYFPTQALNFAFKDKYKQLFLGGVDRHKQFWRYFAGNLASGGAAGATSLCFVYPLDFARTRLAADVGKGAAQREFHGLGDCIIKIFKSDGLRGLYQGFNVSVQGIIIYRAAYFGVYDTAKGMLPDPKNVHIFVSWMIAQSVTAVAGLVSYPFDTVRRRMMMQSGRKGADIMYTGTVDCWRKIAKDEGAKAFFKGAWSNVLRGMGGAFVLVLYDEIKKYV

[2] = biological target: T1, human mitochondrial ADP/ATP carrier isoform 1 (hAAC1); experiment: […]-ATP uptake in proteoliposomes, dose-response; type: biochemical; set-up: gene SLC25A4; hAAC1Δ1-10, residues 11-298
[3] = biological target: T1, human mitochondrial ADP/ATP carrier isoform 1 (hAAC1); experiment: […]-ATP uptake in proteoliposomes, inhibition at […]; type: biochemical; set-up: gene SLC25A4; hAAC1Δ1-10, residues 11-298; conditions: read-out: % inhibition at 100 μM
[4] = biological target: T1, human mitochondrial ADP/ATP carrier isoform 1 (hAAC1); experiment: […]-ATP uptake in proteoliposomes, dose-response; CPM thermal shift (+[…] °C at […]); type: biochemical; set-up: gene SLC25A4; hAAC1Δ1-10, residues 11-298

## Nc1ncnc2c1ncn2[C@@H]1O[C@H](COP(=O)(O)OP(=O)(O)OP(=O)(O)O)[C@@H](O)[C@H]1O [ATP]
[1]
  Km: 3.2 µM

## O=C(O)c1ccc2cc(-c3ccc(O)c(C45CC6CC(CC(C6)C4)C5)c3)ccc2c1 [CD-437]
[2]; read-out: IC50
  IC50: 20 µM

## O=C1c2c(O)cccc2Cc2cccc(O)c21 [anthralin]
[3]
  inhibition at 100 µM: 77%

## O=C(O)C[C@@H]1C(=O)O[C@H]2[C@H](OC(=O)c3cc(O)c(O)c(O)c3)[C@@H](OC(=O)c3cc(O)c(O)c4c3[C@H]1[C@H](O)C(=O)O4)[C@H](OC(=O)c1cc(O)c(O)c(O)c1)O[C@@H]2COC(=O)c1cc(O)c(O)c(O)c1 [chebulinic acid]
[2]
  IC50: 6.5 µM

## Cc1ccc(C(=O)Nc2ccc(S(=O)(=O)O)c3cc(S(=O)(=O)O)cc(S(=O)(=O)O)c23)cc1NC(=O)c1cccc(NC(=O)Nc2cccc(C(=O)Nc3cc(C(=O)Nc4ccc(S(=O)(=O)O)c5cc(S(=O)(=O)O)cc(S(=O)(=O)O)c45)ccc3C)c2)c1 [suramin]
[4]
  IC50: 2400 nM

## CC1=C(/C=C/C(C)=C/C=C/C(C)=C/C(=O)O)C(C)(C)CCC1 [tretinoin]
[3]
  inhibition at 100 µM: 59%
